The supplement of paper PMC10307832

Key:
Assay in all cases: relative viability (nuclei count vs DMSO), 5 days (fraction); higher = more cells survive
[1] = compound: C#Cc1cccc(Nc2ncnc3cc(OC)c(OCCCCCCC(=O)NO)cc23)c1 [CUDC-101] + NC(=O)Nc1cc(-c2cccc(F)c2)sc1C(=O)N[C@H]1CCCNC1 [AZD7762] (partner 0.2 µM)
Method in brief: (§1)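 A single step with final 0.05% Triton X-100, 1% formaldehyde and 1 ug/ml Hoechst fixed the cells and stained nuclei 5 days after treatment. Lung cancer cell lines in 1536-well plates had been treated by pin tool the day after seeding with one drug alone or a fixed anchor-drug dose plus five library-drug doses (not always all listed) in √10 steps, and nuclei were counted on 4× images. Relative viability is the ratio of nuclei in treated wells to nuclei in vehicle wells, taken as the median of duplicate plates.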

[2] = compound: C1=CC=C2C(=C1)N=C(S2)C(C#N)C3=NC(=NC=C3)NCCC4=CN=CC=C4 + C[C@]1(O)C[C@@H](c2nc(-c3ccc4ccc(-c5ccccc5)nc4c3)c3c(N)nccn32)C1 [Linsitinib] (partner 1 µM)
Method in brief: as §1

[3] = compound: COc1cc2/c(=N/c3ccc(Br)cc3F)nc[nH]c2cc1OCC1CCN(C)CC1 [Vandetanib] + Cc1nc(NC(=O)N2CCC[C@H]2C(N)=O)sc1-c1ccnc(C(C)(C)C(F)(F)F)c1 [Alpelisib] (partner 2 µM)
Method in brief: as §1

[4] = compound: COc1cc2/c(=N/c3ccc(Br)cc3F)nc[nH]c2cc1OCC1CCN(C)CC1 [Vandetanib] + N=C(N)NC(=N)NCCc1ccccc1 [Phenformin] (partner 250 µM)
Method in brief: as §1

Row | Cell Line | relative viability ([1]; first compound 0.01 µM) | relative viability ([1]; first compound 0.03162 µM) | relative viability ([1]; first compound 0.1 µM) | relative viability ([1]; first compound 0.3162 µM) | relative viability ([1]; first compound 1 µM) | relative viability ([2]; first compound 0.005 µM) | relative viability ([2]; first compound 0.01581 µM) | relative viability ([2]; first compound 0.05 µM) | relative viability ([2]; first compound 0.1581 µM) | relative viability ([2]; first compound 0.5 µM) | relative viability ([3]; first compound 0.02 µM) | relative viability ([3]; first compound 0.06325 µM) | relative viability ([3]; first compound 0.2 µM) | relative viability ([3]; first compound 0.6325 µM) | relative viability ([3]; first compound 2 µM) | relative viability ([4]; first compound 0.02 µM) | relative viability ([4]; first compound 0.2 µM) | relative viability ([4]; first compound 0.6325 µM) | relative viability ([4]; first compound 2 µM) | relative viability ([4]; first compound 0.06325 µM)
1 | EPLC-272H | 0.187 | 0.139 | 0.175 | 0.109 | 0.115 | 1.01 | 1.3 | 1.12 | 1.27 | 1.12 | 0.865 | 0.814 | 0.96 | 0.909 | 0.997 | 0.326 | 0.294 | 0.273 | 0.301 | 
2 | A-427 | 0.675 | 0.701 | 0.625 | 0.483 | 0.258 | 1.05 | 1.12 | 1.11 | 1.17 | 1.13 | 0.951 | 1.01 | 1.11 | 1.06 | 1.1 | 0.297 | 0.274 | 0.253 | 0.22 | 0.303
3 | NCI-H1755 | 0.387 | 0.396 | 0.463 | 0.43 | 0.317 | 0.968 | 1.05 | 0.976 | 1.07 | 0.908 | 0.935 | 0.888 | 0.872 | 0.896 | 0.858 | 0.67 | 0.671 | 0.38 | 0.609 | 0.593
4 | NCI-H838 | 0.939 | 0.907 | 0.94 | 0.952 | 0.888 | 0.713 | 1.08 | 0.957 | 1.03 | 0.874 | 0.98 | 0.957 | 0.991 | 1.04 | 1.05 | 0.533 | 0.617 | 0.542 | 0.646 | 0.579
5 | ABC-1 | 0.889 | 0.807 | 0.763 | 0.852 | 0.334 | 0.979 | 0.887 | 1.01 | 0.962 | 0.601 | 1.01 | 0.787 | 0.95 | 1.12 | 0.827 | 0.248 | 0.256 | 0.275 | 0.266 | 0.205
6 | NCI-H1793 | 0.406 | 0.31 | 0.477 | 0.648 | 0.211 | 0.782 | 0.956 | 0.886 | 1.25 | 0.87 | 0.65 | 0.635 | 0.623 | 0.756 | 0.512 | 0.371 | 0.328 | 0.299 | 0.292 | 0.355
7 | EKVX | 0.84 | 0.68 | 0.656 | 0.771 | 0.563 | 0.83 | 1.17 | 1.06 | 1.02 | 0.829 | 0.95 | 0.873 | 0.86 | 0.777 | 0.424 | 0.245 | 0.228 | 0.227 | 0.219 | 0.234
8 | HCC-827 | 0.206 | 0.145 | 0.13 | 0.117 | 0.113 | 0.988 | 0.987 | 0.961 | 1.03 | 0.931 | 1.02 | 0.986 | 0.752 | 0.233 | 0.167 | 0.441 | 0.319 | 0.157 | 0.165 | 0.367
